# Test results from patent US20240336610A1, “3CL PROTEASE SMALL-MOLECULE INHIBITOR FOR TREATING OR PREVENTING CORONAVIRUS INFECTION, AND USE THEREOF” (THE GLOBAL HEALTH DRUG DISCOVERY INSTITUTE, priority 2021, published 2024).
# Where a name gives a salt, the structure may show the parent alone. Read-outs that look alike come from different tables or passages of the source.
# How the values were obtained:
# [1] = Toxicity testing in uninfected cells; assay type: cell-based; conditions: human, uninfected Hela-ACE cells, Cell-Titer Glo
# Procedure: (§1) Toxicity Testing in Uninfected Cells
# (§2) The compound was transferred to a 1536-well plate (Corning No. 9006BC), and then Hela-ACE cells were added (cell density: 600 cells/5 microliter of medium MEM with 2% FBS). After the assay plate was incubated at 37° C. in 5% CO2 for 48 hours, cell viability was tested. 2 μL of 50% Cell-Titer Glo (Promega No G7573) was diluted in water and added to a cell assay plate, and then a value on En Vision Plate Reader (Perkin Elmer) was read.
# [2] = Oral pharmacokinetics in rats; assay type: in vivo; conditions: rat, blood, male SD rats, 15 mg/kg
# Procedure: Test Example 2: Measurement of Oral Pharmacokinetics in Rats
# Male SD rats were orally administered with 15 mg/kg of the compound in the examples of the present disclosure, and blood samples were collected at 0.083, 0.25, 0.5, 1, 2, 4, and 8 hours respectively. After the samples were treated with anticoagulant EDTA-K2 and acetonitrile and centrifuged, a drug concentration analysis was conducted using LC/MS/MS.
# SARS-CoV-2 = assay: SARS-CoV-2/Hela-ACE test; assay type: cell-based; conditions: read-out: SAR-CoV-2 EC50
# [3] = molecular target: SARS-CoV-2 main protease (3CLpro) (Severe acute respiratory syndrome coronavirus 2 (2019-nCoV) (SARS-CoV-2), UniProt P0DTD1); assay: Enzyme activity test; assay type: biochemical; conditions: 200 nM recombinant SARS-CoV-2 main protease, 15 μM fluorescent substrate, pH 7.3
# Hela-ACE cells = assay: Toxicity testing in uninfected cells; assay type: cell-based; conditions: 48 hours, Cell-Titer Glo
# Procedure: as §1, §2
# [4] = Severe acute respiratory syndrome coronavirus 2, 48 h
# [5] = Severe acute respiratory syndrome coronavirus 2, Hela-ACE cells infected with SARS-CoV-2 (USA-WA1/2020), 48 hours
Compound,CC50 at 48 h [1],AUC(0-inf) [2],AUC(0-t) [2],Cmax [2],half-life [2],EC50 (SARS-CoV-2; [4]),IC50 [3],EC50 (SARS-CoV-2; [5]),CC50 (Hela-ACE cells),"EC50 (SARS-CoV-2; Hela-ACE cells infected with SARS-CoV-2 (USA-WA1/2020), 48 hours)"
"CC(C)(C)[C@H](NC(=O)C(F)(F)F)C(=O)N1C[C@H]2[C@@H]([C@H]1C(=O)NC(C#N)c1cncc(Br)c1)C2(C)C (stereo partly drawn) [GDI-011, (1R,2S,5S)-N-((5-bromopyridin-3-yl) (cyano)methyl)-3-((S)-3,3-dimethyl-2-(2,2,2-trifluoroacetylamino)butyryl)-6,6-dimethyl-3-aza bicyclo[3.1.0]hexane-2-carboxamide]",> 39.8 µM,3470 ng·h/mL,3450 ng·h/mL,1870 ng/mL,1.05 h,0.613 µM,0.078 µM,,,
"COc1cncc(C(C#N)NC(=O)[C@@H]2[C@@H]3[C@H](CN2C(=O)[C@@H](NC(C)=O)C(C)(C)C)C3(C)C)c1 (stereo partly drawn) [GDI-008, (1R,2S,5S)-3-((S)-2-acetamido-3,3-dimethylbutyryl)-N-(cyano(5-methoxypyridin-3-yl)methyl)-6,6-dimethyl-3-azabicyclo[3.1.0]he xane-2-carboxamide]",> 39.8 µM,,,,,,0.037 µM,0.417 µM,,
CC(C)(C)OC(=O)NC(C(=O)N1C[C@H]2[C@@H]([C@H]1C(=O)NC(C#N)c1cncc(Br)c1)C2(C)C)C(C)(C)C (stereo partly shown) [GDI-001],> 39.8 µM,1830 ng·h/mL,1810 ng·h/mL,630 ng/mL,2.34 h,,0.08 µM,0.462 µM,,
"CC(=O)N[C@H](C(=O)N1C[C@H]2[C@@H]([C@H]1C(=O)NC(C#N)c1cncc(Br)c1)C2(C)C)C(C)(C)C (stereo partly drawn) [GDI-003, (1R,2S,5S)-3-((S)-2-acetamido-3,3-dimethylbutyryl)-N-((5-bromopyridin-3-yl)(cyano)methyl)-6,6-dimethyl-3-azabicyclo[3.1.0]he xane-2-carboxamide]",> 39.8 µM,,,,,,0.05 µM,1.25 µM,,
"CC(C)(C)[C@H](N)C(=O)N1C[C@H]2[C@@H]([C@H]1C(=O)NC(C#N)c1cncc(Br)c1)C2(C)C (stereo partly drawn) [GDI-002, (1R,2S,5S)-3-((S)-2-amino-3,3-dimethylbutyryl)-N-((5-bromopyridin-3-yl)(cyano)methyl)-6,6-dimethyl-3-azabicyclo[3.1.0]he xane-2-carboxamide formate]",> 39.8 µM,,,,,7.86 µM,0.32 µM,,,
"CC(=O)N[C@H](C(=O)N1C[C@H]2[C@@H]([C@H]1C(=O)NC(C#N)c1cncc(C#N)c1)C2(C)C)C(C)(C)C (stereo partly drawn) [GDI-010, (1R,2S,5S)-3-((S)-2-acetamido-3,3-dimethylbutyryl)-N-(cyano(5-cyanopyridin-3-yl)methyl)-6,6-dimethyl-3-azabicyclo[3.1.0]hexane-2-carboxamide]",> 39.8 µM,,,,,,0.33 µM,5.72 µM,,
CC(=O)N[C@H](C(=O)N1C[C@H]2[C@@H]([C@H]1C(=O)N[C@@H](C#N)c1cncc3ccccc13)C2(C)C)C(C)(C)C [GDI-037],> 39.8 µM,,,,,,0.04 µM,0.03 µM,,
"CC(C)(C)[C@H](NC(=O)C(F)(F)F)C(=O)N1C[C@H]2[C@@H]([C@H]1C(=O)NC(C#N)c1cncc(C(F)(F)F)c1)C2(C)C (stereo partly drawn) [GDI-012, (1R,2S,5S)-N-(cyano (5-(trifluoromethyl)pyridin-3-yl)methyl)-3-((S)-3,3-dimethyl-2-(2,2,2-trifluoroacetylamino)butyryl)-6,6-dimethyl-3-azabicyclo[3.1.0]hexane-2-carboxamide]",,7140 ng·h/mL,7080 ng·h/mL,2120 ng/mL,1.92 h,,0.024 µM,,,
"Cc1ccc(S(=O)(=O)N[C@H](C(=O)N2C[C@H]3[C@@H]([C@H]2C(=O)NC(C#N)c2cncc(C(F)(F)F)c2)C3(C)C)C(C)(C)C)cc1 (stereo partly drawn) [GDI-016, (1R,2S,5S)-N-(cyano(5-(trifluoromethyl)pyridin-3-yl)methyl)-3-((S)-3,3-dimethyl-2-((4-methylphenyl)sulfonamido)butanoyl)-6,6-dimet hyl-3-azabicyclo[3.1.0]hexane-2-carboxamide]",> 39.2 µM,,,,,,0.031 µM,0.032 µM,,
CC(=O)N[C@H](C(=O)N1C[C@H]2[C@@H]([C@H]1C(=O)N[C@H](C#N)c1cncc3ccccc13)C2(C)C)C(C)(C)C [GDI-036],> 39.8 µM,,,,,,0.02 µM,0.02 µM,,
"CC(C)(C)[C@H](NC(=O)C(F)(F)F)C(=O)N1C[C@H]2[C@@H]([C@H]1C(=O)NC(C#N)c1cncc(C#N)c1)C2(C)C (stereo partly drawn) [GDI-014, (1R,2S,5S)-N-(cyano(5-cyanopyridin-3-yl)methyl)-3-((S)-3,3-dimethyl-2-(2,2,2-trifluoroacetylamino)butyryl)-6,6-dimethyl-3-azabicycl o[3.1.0]hexane-2-carboxamide]",,7820 ng·h/mL,7800 ng·h/mL,5000 ng/mL,0.832 h,,0.046 µM,,,
"CC(=O)N[C@H](C(=O)N1C[C@H]2[C@@H]([C@H]1C(=O)NC(C#N)c1cncc(C(F)(F)F)c1)C2(C)C)C(C)(C)C (stereo partly drawn) [GDI-007, (1R,2S,5S)-3-((S)-2-acetamido-3,3-dimethylbutanol)-N-(cyano(5-(trifluoromethyl)pyridin-3-yl)methyl)-6,6-dimethyl-3-azabicyclo [3.1.0]hexane-2-carboxamide]",> 39.8 µM,,,,,,0.17 µM,0.512 µM,,
"CN(C)c1ccc(S(=O)(=O)N[C@H](C(=O)N2C[C@H]3[C@@H]([C@H]2C(=O)NC(C#N)c2cncc4ccccc24)C3(C)C)C(C)(C)C)cc1 (stereo partly drawn) [GDI-027, (1R,2S,5S)-N-(cyano(isoquinolin-4-yl)methyl)-3-((S)-2-((4-(dimethylamino)phenyl)sulfonamido)-3,3-dimethylbutyryl)-6,6-dimethyl-3-azabicyclo[3.1.0]hexane-2-carboxamide]",,,,,,,0.0076 µM,,,
"(1R,2S,5S)-N-(cyano(5-(3-methyl-1,2,4-oxadiazol-5-yl)pyridin-3-yl)methyl)-3-(S)-3,3-dimethyl-2-(2,2,2-trifluoroacetylamino) butyryl)- 6,6-dimethyl-3-azabicyclo[3.1.0]hexane-2-carboxamide [GDI-017]",,,,,,,0.046 µM,,> 39.8 µM,0.66 µM
"COC(=O)c1cncc(C(C#N)NC(=O)[C@@H]2[C@@H]3[C@H](CN2C(=O)[C@@H](NC(C)=O)C(C)(C)C)C3(C)C)c1 (stereo in doubt) [GDI-034, 5-((1R,2S,5S)-3-((S)-2-acetamido-3,3-dimethylbutyryl)-6,6-dimethyl-3-azabicyclo[3.1.0]hexane-2-carboxamido)(cyano)methyl)methyl nicotinate]",,,,,,,0.062 µM,,,
"CC(=O)N[C@H](C(=O)N1C[C@H]2[C@@H]([C@H]1C(=O)NC(C#N)c1cncc(C)c1)C2(C)C)C(C)(C)C (stereo partly drawn) [GDI-005, (1R,2S,5S)-3-((S)-2-acetamido-3,3-dimethylbutyryl)-N-(cyano(5-methylpyridin-3-yl)methyl)-6,6-dimethyl-3-azabicyclo[3.1.0]hex ane-2-carboxamide]",> 39.8 µM,,,,,,0.08 µM,0.117 µM,,
"CC(=O)N[C@H](C(=O)N1C[C@H]2[C@@H]([C@H]1C(=O)NC(C#N)c1c[nH]c3ccccc13)C2(C)C)C(C)(C)C (stereo partly drawn) [GDI-024, (1R,2S,5S)-3-((S)-2-acetamido-3,3-dimethylbutyryl)-N-(cyano(1H-indol-3-yl)methyl)-6,6-dimethyl-3-azabicyclo[3.1.0]hexane-2-c arboxamide]",,,,,,,66.3 µM,,,
"CC(=O)N[C@H](C(=O)N1C[C@H]2[C@@H]([C@H]1C(=O)NC(C#N)c1cncc3ccccc13)C2(C)C)C(C)(C)C (stereo partly drawn) [GDI-006, (1R,2S,5S)-3-((S)-2-acetamido-3,3-dimethylbutyryl)-N-(cyano(isoquinolin-4-yl)methyl)-6,6-dimethyl-3-azabicyclo[3.1.0]hexane-2-carboxamide]",> 39.8 µM,1700 ng·h/mL,1690 ng·h/mL,2170 ng/mL,0.875 h,,0.028 µM,0.028 µM,,
